Source: patent US10344026B2, “Compositions and methods of targeting mutant K-ras” (NANTBIO, INC., priority 2017, dated 2019)
pEC50, pIC50: −log10 of the molar value.

Columns and labels:
Assay type in all cases: cell-based
wild type K-Ras = molecular target: T1, wild type K-Ras (Homo sapiens, UniProt P01116); assay: G-LISA Ras activation, 293H cells transfected with Ras wild-type, EGF stimulated; settings: compound 1 hour, then 100 ng/ml EGF 2 minutes
T1 construct: expressed in transfected cells; host or cells: 293H cells
In short: (§1)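 Active Ras was quantified by G-LISA in lysates of 293H cells made the day after transfection with wild-type, G12D or G12V Ras plasmid (5 μg). Compounds were applied at 3.125-25 μM for 1 h; only the wild-type cells got a 2-min 100 ng/ml EGF pulse before lysis.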

K-Ras G12D = molecular target: T2, K-Ras G12D (Homo sapiens, UniProt P01116, G12D); assay: G-LISA Ras activation, 293H cells transfected with G12D mutant; settings: compound 1 hour
T2 construct: expressed in transfected cells; host or cells: 293H cells
In short: as §1

[1] = tested on: Ishikawa (K-Ras wild type cell line); assay: Viability assay (CellTiterBlue, 72 hr) Ishikawa; settings: Homo sapiens, GI50, CellTiterBlue, Ishikawa K-Ras wild-type
In short: (§2)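 Cells were seeded at 1000 per well and allowed 18 hr at 37 °C in CO2 before compound addition (final DMSO 0.5%). After 72 hr exposure, CellTiterBlue was added for 3 hr and fluorescence read at Ex550/Em590. GI50 values were calculated against DMSO (100%) and 100 uM tamoxifen (0%) controls.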

[2] = tested on: U87-MG (K-Ras wild type cell line); assay: Viability assay (CellTiterBlue, 72 hr) U87-MG; settings: Homo sapiens, U-87 MG, GI50, CellTiterBlue, U87-MG K-Ras wild-type
In short: as §2

[3] = tested on: HCC827 (K-Ras wild type cell line); assay: Viability assay (CellTiterBlue, 72 hr) HCC827; settings: Homo sapiens, GI50, CellTiterBlue, HCC827 K-Ras wild-type
In short: as §2

[4] = tested on: A375 (K-Ras wild type cell line); assay: Viability assay (CellTiterBlue, 72 hr) A375; settings: Homo sapiens, A-375, GI50, CellTiterBlue
In short: as §2

Panc1-G12D = assay: Viability assay (CellTiterBlue, 72 hr) Panc1; settings: Homo sapiens, PANC-1, GI50, CellTiterBlue, Panc1 K-Ras G12D, read-out: 72 hr Cell Viability Panc1 (G12D)
In short: as §2

Panc10.05-G12D = assay: Viability assay (CellTiterBlue, 72 hr) Panc10.05; settings: Homo sapiens, Panc1005, GI50, CellTiterBlue, Panc10.05 K-Ras G12D, read-out: 72 hr Cell Viability Panc10.05 (G12D)
In short: as §2

HCT116-G31D = assay: Viability assay (CellTiterBlue, 72 hr) HCT116; settings: Homo sapiens, HCT-116, GI50, CellTiterBlue, HCT116 K-Ras G13D, read-out: 72 hr Cell Viability HCT116 (G13D)
In short: as §2

[5] = tested on: phospho-ERK in HCC827 (Wild-type); assay: In-Cell Western phospho-ERK, HCC827; settings: Homo sapiens, 1 h; HCC827, one hour treatment; read-out: In-Cell Western HCC827 (Wild-type) Erk (P)
In short: (§3)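 One-hour compound treatment of cells plated a day earlier, 0.5% DMSO. Phospho-signal detected by in-cell immunofluorescence imaging; EC50 calculated.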

[6] = tested on: phospho-Akt in HCC827 (Wild-type); assay: In-Cell Western phospho-Akt, HCC827; settings: Homo sapiens, 1 h; HCC827, one hour treatment; read-out: In-Cell Western HCC827 (Wild-type) Akt (P)
In short: as §3

[7] = tested on: phospho-ERK in A375 (Wild-type); assay: In-Cell Western phospho-ERK, A375; settings: Homo sapiens, A-375, 1 h; A375, one hour treatment; read-out: In-Cell Western A375 (Wild-type) Erk (P)
In short: as §3

[8] = tested on: phospho-Akt in A375 (Wild-type); assay: In-Cell Western phospho-Akt, A375; settings: Homo sapiens, A-375, 1 h; A375, one hour treatment; read-out: In-Cell Western A375 (Wild-type) Akt (P)
In short: as §3

[9] = tested on: phospho-ERK in Panc1 (G12D); assay: In-Cell Western phospho-ERK, Panc1; settings: Homo sapiens, PANC-1, 1 h; Panc1, one hour treatment; read-out: In-Cell Western Panc1 (G12D) Erk (P)
In short: as §3

[10] = tested on: phospho-Akt in Panc1 (G12D); assay: In-Cell Western phospho-Akt, Panc1; settings: Homo sapiens, PANC-1, 1 h; Panc1, one hour treatment; read-out: In-Cell Western Panc1 (G12D) Akt (P)
In short: as §3

[11] = tested on: phospho-ERK in Panc10.05 (G12D); assay: In-Cell Western phospho-ERK, Panc10.05; settings: Homo sapiens, Panc1005, 1 h; Panc10.05, one hour treatment; read-out: In-Cell Western Panc10.05 (G12D) Erk (P)
In short: as §3

[12] = tested on: phospho-Akt in Panc10.05 (G12D); assay: In-Cell Western phospho-Akt, Panc10.05; settings: Homo sapiens, Panc1005, 1 h; Panc10.05, one hour treatment; read-out: In-Cell Western Panc10.05 (G12D) Akt (P)
In short: as §3

T1 sequence (P01116 whole entry): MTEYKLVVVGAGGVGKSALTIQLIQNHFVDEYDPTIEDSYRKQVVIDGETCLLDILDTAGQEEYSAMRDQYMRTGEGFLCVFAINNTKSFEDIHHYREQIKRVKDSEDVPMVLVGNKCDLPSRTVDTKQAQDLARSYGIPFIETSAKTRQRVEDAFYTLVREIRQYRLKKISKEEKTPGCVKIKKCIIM
T2 sequence (P01116 whole entry G12D): as the sequence (P01116 whole entry) above, with G12D counted along it

SMILES | IC50 (wild type K-Ras) | IC50 (K-Ras G12D) | pIC50 [1] | pIC50 [2] | pIC50 [3] | pIC50 [4] | pIC50 (Panc1-G12D) | pIC50 (Panc10.05-G12D) | pIC50 (HCT116-G31D) | pEC50 [5] | pEC50 [6] | pEC50 [7] | pEC50 [8] | pEC50 [9] | pEC50 [10] | pEC50 [11] | pEC50 [12]
COCCN1C(=O)CCc2cc(-c3csc(NC(=O)c4c(C)nn(C)c4C)n3)ccc21 [Compound 120, N-(4-(1-(2-methoxyethyl)-2-oxo-1,2,3,4-tetrahydroquinoinolin-6-yl)thiazol-2-yl)-1,3,5-trimethyl-1H-pyrazole-4-carboxamide] | 11.9 µM | 3.4 µM | 5.00 | 4.89 | 5.40 | 4.70 | 5.40 | 6.10 | < 4.60 | 5.52 | < 4.60 | 4.62 | < 4.60 | 5.30 | 4.59 | 5.92 | 5.30
CCCn1nc(C)c(C(=O)Nc2nc(-c3ccc4c(c3)CCC(=O)N4)cs2)c1C [Compound 55, 3,5-dimethyl-N-(4-(2-oxo-1,2,3,4-tetrahydroquinolin-6-yl)thiazol-2-yl)-1-propyl-1H-pyrazole-4-carboxamide] | 6.5 µM | 4 µM | < 4.60 | < 4.60 | < 4.60 | < 4.60 | < 4.60 | < 4.60 | < 4.60 | < 4.60 | < 4.60 | < 4.60 | < 4.60 | < 4.60 | < 4.60 | 4.85 | < 4.60
Cc1nn(C(C)C)c(C)c1C(=O)Nc1nc(-c2ccc3c(c2)CCC(=O)N3)cs1 [Compound 52, 1-isopropyl-3,5-dimethyl-N-(4-(2-oxo-1,2,3,4-tetrahydroquinolin-6-yl)thiazol-2-yl)-1H-pyrazole-4-carboxamide] | 13.9 µM | 5.2 µM | 4.89 | 4.85 | 5.00 | 5.30 | 4.80 | 4.82 | 5.00 | 4.70 | < 4.60 | 4.85 | 4.62 | 5.10 | < 4.60 | 5.40 | 4.74
CCc1nc(C)c(C(=O)Nc2nc(-c3ccc4c(c3)CCC(=O)N4CCOC)cs2)o1 [Compound 110, 2-ethyl-N-(4-(1-(2-methoxyethyl)-2-oxo-1,2,3,4-tetrahydroquinolin-6-yl)thiazol-2-yl)-4-methyloxazole-5-carboxamide] | 6.8 µM | 3.9 µM | 5.00 | 4.77 | 5.40 | < 4.60 | 5.40 | 6.11 | < 4.60 | 5.40 | < 4.60 | 4.64 | < 4.60 | 5.52 | 4.64 | 5.89 | 5.52
CCn1nc(C)c(C(=O)Nc2nc(-c3ccc4c(c3)CCC(=O)N4CCOC)cs2)c1C [Compound 119, 1-ethyl-N-(4-(1-(2-methoxyethyl)-2-oxo-1,2,3,4-tetrahydroquinolin-6-yl)thiazol-2-yl)-3,5-dimethyl-1H-pyrazole-4-carboxamide] | 5.4 µM | 2.6 µM | 5.52 | 5.22 | 5.70 | 5.10 | 5.70 | 6.15 | 4.80 | 5.96 | < 4.60 | 5.10 | 4.92 | 5.52 | 4.72 | 6.12 | 5.82
Cc1nn(-c2ccccc2)c(C)c1C(=O)Nc1nc(-c2ccc3c(c2)CCC(=O)N3)cs1 [Compound 53, 3,5-dimethyl-N-(4-(2-oxo-1,2,3,4-tetrahydroquinolin-6-yl)thiazol-2-yl)-1-phenyl-1H-pyrazole-4-carboxamide] | 7.7 µM | 6.7 µM | 4.89 | 4.82 | 5.00 | 5.52 | 4.92 | 5.00 | 4.96 | 4.85 | < 4.60 | 5.22 | 5.00 | 4.80 | < 4.60 | 5.52 | 4.82
CCn1cc(C(=O)Nc2nc(-c3ccc4c(c3)CCC(=O)N4Cc3cccnc3)cs2)c(C)n1 [Compound 115, 1-ethyl-3-methyl-N-(4-(2-oxo-1-(pyridin-3-ylmethyl)-1,2,3,4-tetrahydroquinolin-6-yl)thiazol-2-yl)-1H-pyrazole-4-carboxamide] | 6.3 µM | 3.4 µM | 5.05 | 4.77 | 4.96 | 5.22 | 5.05 | 5.40 | 5.00 | 5.22 | < 4.60 | 5.05 | < 4.60 | 5.70 | 4.74 | 5.70 | 4.92
Cc1nn(C(C)C)cc1C(=O)Nc1nc(-c2ccc3c(c2)CCC(=O)N3Cc2cccnc2)cs1 [Compound 116, 1-isopropyl-3-methyl-N-(4-(2-oxo-1-(pyridin-3-ylmethyl)-1,2,3,4-tetrahydroquinolin-6-yl)thiazol-2-yl)-1-pyrazole-4-carboxamide] | 6.1 µM | 2.5 µM | 4.68 | < 4.60 | 5.40 | 4.92 | 5.52 | 5.92 | < 4.60 | 5.52 | < 4.60 | 4.92 | < 4.60 | 5.52 | 4.66 | 6.13 | 5.70
Cc1nn(-c2ccc(F)cc2)c(C)c1C(=O)Nc1nc(-c2ccc3c(c2)CCC(=O)N3)cs1 [Compound 54, 1-(4-fluorophenyl)-3,5-dimethyl-N-(4-(2-oxo-1,2,3,4-tetrahydroquinolin-6-yl)thiazol-2-yl)-1-pyrazole-4-carboxamide] | 10.6 µM | 7.9 µM | < 4.60 | 4.82 | 4.89 | 4.59 | 4.82 | 5.22 | 4.64 | < 4.60 | < 4.60 | < 4.60 | < 4.60 | < 4.60 | < 4.60 | 5.52 | < 4.60
